Experimental data from patent publication US20190233825A1, “METHODS OF MODULATING CYTOSOLIC DNA SURVEILLANCE MOLECULES” (BAYER ANIMAL HEALTH GMBH, priority 2015, published 2019).

Columns and labels:
[1] = test system: STING; experiment: SEAP reporter assay in B16-Blue ISG-KO-STING cells; type: cell-based, murine
Description: B16-Blue™ ISG-KO-STING cells were generated from the B16-Blue™ ISG cell line, a murine B16-F1 melanoma-derived cell line, through stable knockout of the STING gene. They express the secreted embryonic alkaline phosphatase (SEAP) reporter gene under the control of the I-ISG54 promoter which is comprised of the IFN-inducible ISG54 promoter enhanced by a multimeric ISRE. […] Stimulation of these cells with IFN triggers the activation of the I-ISG54 promoter and the production of SEAP.
Referring to FIG. 26, known STING pathways activators, Herpes simplex virus DNA complexed with LyoVec (HSV-LyoVec) and the cyclic dinucleotide 2′,3′-cGAMP were used to validate cell line properties.

[2] = test system: I-ISG54 promoter; experiment: SEAP reporter assay in B16-Blue ISG cells; type: cell-based, murine
Text: B16-Blue™ ISG cells were derived from the murine B16 F1 melanoma cell line. They express the secreted embryonic alkaline phosphatase (SEAP) reporter gene under the control of the I-ISG54 promoter which is comprised of the IFN-inducible ISG54 promoter enhanced by a multimeric ISRE. Stimulation of B16-Blue™ ISG cells with IFNs, cyclic dinucleotides, such as cGAMP, or type I IFN inducers, such as transfected poly(dA:dT), triggers the activation of the I-ISG54 promoter and the production of SEAP.

[3] = test system: BRD; experiment: BRD treatment study in heifers: Baytril 100, Seq No 2-F, combination; type: in vivo, cattle; conditions: observed until day 60 post-diagnosis
[4] = test system: BRD; experiment: BRD treatment study in beef calves: Draxxin, Seq No 2-F, combination; type: in vivo, cattle; conditions: 56 days after diagnosis
Description: The purpose of this study was to compare the effectiveness of Draxxin®, Draxxin® and Seq No 2-F, or Seq No 2-F alone in cattle diagnosed with BRD.
The first group was administered 1.1 ml/cwt of Draxxin® subcutaneously at the time of diagnosis. […] A 3 day moratorium followed treatment, and the study concluded 56 days after the diagnosis.

[5] = test system: BRD; experiment: Metaphylaxis study in feedlot calves at medium risk of BRD versus Micotil; conditions: calves observed for 56 days
Description: Weaned beef calves with an average weight of 590 lbs and determined to be at medium risk for BRD were selected for this study.
Morbidity, mortality, average daily gain (ADG), dry matter intake (DMI), and feed to weight gain ratio were measured and compared between the study groups.

[6] = test system: interferon regulatory factor 3 (IRF-3); experiment: IRF-inducible SEAP reporter assay in THP1-Blue ISG (IRF-THP-1) cells
Description: A human macrophage-like (monocyte) cell line (THP-1), derived from an acute monocytic leukemia patient, is used as a model system for monocyte function. THP1-Blue ISG cells (Invitrogen) were generated by stable integration of an interferon regulatory factor (IRF)-inducible secretory alkaline phosphatase (SEAP) reporter construct (IRF-THP1 cells). The THP-1 cells endogenously contain functional STING (Simulator of interferon genes) pathway molecules, as well as cytosolic DNA recognition receptors. STING receives signals from and is itself a cytosolic DNA surveillance molecule that acts through IRF-3. Activation of STING leads to SEAP production, which is then detectable in the culture supernatant. Thus, activation of the IRF-3 reporter SEAP construct correlates to activation of the STING pathway.
The stably transfected IRF-THP-1 cell line was tested for its functionality by IFN-α1, which is a global activator of different IRF pathways. IRF-THP-1 cells were contacted with human interferon α1 (IFN α1) as a positive control for IRF-3 activation. […] FIG. 4 graphically illustrates IFN α1 activation of IRF-3.

## Nc1nc2c(ncn2[C@@H]2O[C@@H]3COP(=O)(O)O[C@H]4[C@@H](O)[C@H](n5cnc6c(N)ncnc65)O[C@@H]4COP(=O)(O)O[C@@H]2[C@@H]3O)c(=O)[nH]1 [2′,3′-cGAMP]
[1]
  signal (interferon-response element readout): completely abrogated
[2]; parental B16-Blue ISG cell line, FIG. 26
  signal (interferon-response element readout): significant signals

## Nc1nc2c(ncn2[C@@H]2O[C@@H]3COP(=O)(O)O[C@H]4[C@@H](O)[C@H](n5cnc6c(N)ncnc65)O[C@@H]4COP(=O)(O)O[C@H]3[C@H]2O)c(=O)[nH]1 [3′,3′-cGAMP]
[2]; controls, FIG. 21
  SEAP signal: expected specific signals

## CCN1CCN(c2cc3c(cc2F)c(=O)c(C(=O)O)cn3C2CC2)CC1 [Baytril 100, enrofloxacin]
[3]
  ADG (deads out): 1.8 lbs/day
  Avg wt gain (deads in): 24.3 lbs
  Avg wt gain (deads out): 87.00 lbs
  BRD Chronicity: 22.10%
  BRD case-fatality: 10.0%
  BRD repulls: 44.8%

## CCCNC[C@]1(O)[C@H](C)O[C@@H](O[C@H]2[C@H](C)[C@@H](O[C@@H]3O[C@H](C)C[C@H](N(C)C)[C@H]3O)[C@](C)(O)C[C@@H](C)CN[C@H](C)[C@@H](O)[C@](C)(O)[C@@H](CC)OC(=O)[C@@H]2C)C[C@@]1(C)OC [Draxxin, tulathromycin]
[4]
  ADG (deads in): 3.2 lbs/day
  ADG (deads out): 3.3 lbs/day
  Avg wt gain (deads in): 181.1 lbs
  Avg wt gain (deads out): 187.0 lbs
  BRD Chronicity: 4.0%
  BRD case-fatality: 1.3%
  BRD morbidity: 29.2%
  BRD repulls: 37.2%
  Time to BRD Dx: 18.8 days

## CC[C@H]1OC(=O)C[C@@H](O)[C@H](C)[C@@H](O[C@@H]2O[C@H](C)[C@@H](O)[C@H](N(C)C)[C@H]2O)[C@@H](CCN2C[C@H](C)C[C@H](C)C2)C[C@@H](C)C(=O)/C=C/C(C)=C/[C@@H]1CO[C@@H]1O[C@H](C)[C@@H](O)[C@@H](OC)[C@H]1OC [Micotil]
[5]
  ADG: 2.96
  BRD Chronicity: 27.90%
  BRD case-fatality: 3.95%
  BRD repulls: 17.9%
  DMI: 12.96
  Feed: Gain: 4.50
  Overall BRD Mortality: 0.44%
  Time to BRD Dx: 28.1

B1: IFN-α1: human interferon α1, positive control, global activator of different IRF pathways (protein, UniProt P01562 24-189, looked up)
Interferon alpha-1/13: CDLPETHSLDNRRTLMLLAQMSRISPSSCLMDRHDFGFPQEEFDGNQFQKAPAISVLHELIQQIFNLFTTKDSSAAWDEDLLDKFCTELYQQLNDLEACVMQEERVGETPLMNADSILAVKKYFRRITLYLTEKKYSPCAWEVVRAEIMRSLSLSTNLQERLRRKE
[6]; 1.5625-50 μg/ml, FIG. 11
  SEAP signal, dose-response curve: dose-dependent response
[6]; IFN-α1 dosing, FIG. 4
  SEAP signal: clear dose-response relationship
[2]; IFN-α1 dosing, FIG. 20
  SEAP signal: clear dose-response relationship
